Data as given in patent US20250171457A1, “NITROGEN-CONTAINING HETEROCYCLIC COMPOUND HAVING NRF2 ACTIVATION EFFECT” (CHUGAI SEIYAKU KABUSHIKI KAISHA, priority 2022, published 2025).

Test system: Nrf2 transcriptional activity (pARE-Luc reporter) in HepG2 cells
Assay: In vitro Nrf2 transcriptional activity measurement by ARE-dependent reporter assay in HepG2 cell
Type: cell-based, human
Conditions: Homo sapiens; HepG2 cells transfected with pARE-Luc, 4 hours at 37° C.; luciferase activity of Example 1-54 or Example 17-23 at 3.75 μM defined as 100%
How it was run: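 Luminescence readout (Bright-Glo) after 4 h, 37° C compound exposure of HepG2 cells carrying the ARE-luciferase vector pGL4.37. Each well converted to % response versus reference compound at 3.75 μM, and EC50 derived from dose-response curves.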

Row | Structure (SMILES) | EC50 [nM]
1 | O=C(O)c1cc(F)c(-c2cccc3c2OCN(C(=O)c2c(Cl)cc(N4CCN(C5CCOC5)CC4)cc2Cl)C3)cc1N1C2CCC1COC2 (stereo not drawn) [Compound 4-10, 4-[3-[2,6-Dichloro-4-[4-(oxolan-3-yl)piperazin-1-yl]benzoyl]-2,4-dihydro-1,3-benzoxazin-8-yl]-5-fluoro-2-(3-oxa-8-azabicyclo[3.2.1]octan-8-yl)benzoic acid] | 4.2
2 | COCCN1CCN(c2cc(Cl)c(C(=O)N3COc4c(cccc4-c4cc(N5C6CCC5COC6)c(C(=O)O)cc4F)C3)c(Cl)c2)[C@H](C)C1 [Compound 7-9, 4-[3-[2,6-Dichloro-4-[(2R)-4-(2-methoxyethyl)-2-methylpiperazin-1-yl]benzoyl]-2,4-dihydro-1,3-benzoxazin-8-yl]-5-fluoro-2-(3-oxa-8-azabicyclo[3.2.1]octan-8-yl)benzoic acid] | 8.4
3 | COc1ncc(-c2cc(Cl)c(C(=O)N3COc4c(cccc4-c4cc(N5C6CCC5COC6)c(C(=O)O)cc4F)C3)c(Cl)c2)c2nn(C)nc12 [Compound 3-26, 4-[3-[2,6-Dichloro-4-(4-methoxy-2-methyltriazolo[4,5-c]pyridin-7-yl)benzoyl]-2,4-dihydro-1,3-benzoxazin-8-yl]-5-fluoro-2-(3-oxa-8-azabicyclo[3.2.1]octan-8-yl)benzoic acid] | 9.8
4 | O=C(O)c1cc(F)c(-c2cccc3c2OCN(C(=O)c2c(Cl)cc(N4CC5(CC(F)C5)C4)cc2Cl)C3)cc1N1C2CCC1COC2 [Compound 16-8, 4-[3-[2,6-Dichloro-4-(6-fluoro-2-azaspiro[3.3]heptan-2-yl)benzoyl]-2,4-dihydro-1,3-benzoxazin-8-yl]-5-fluoro-2-(3-oxa-8-azabicyclo[3.2.1]octan-8-yl)benzoic acid] | 3.9
5 | O=C(O)c1cc(F)c(-c2c(F)ccc3c2OCN(C(=O)c2c(Cl)cc(N4CCN(C5COC5)CC4)cc2Cl)C3)cc1N1CCOCC1 [Compound 1-82, 4-[3-[2,6-Dichloro-4-[4-(oxetan-3-yl)piperazin-1-yl]benzoyl]-7-fluoro-2,4-dihydro-1,3-benzoxazin-8-yl]-5-fluoro-2-morpholin-4-ylbenzoic acid] | 3.5
6 | CO[C@@H]1CC2(CN(c3cc(Cl)c(C(=O)N4COc5c(cccc5-c5cc(N6C7CCC6COC7)c(C(=O)O)cc5F)C4)c(Cl)c3)C2)[C@H]1C (racemic) [Compound 1-86, 4-[3-[2,6-Dichloro-4-[rac-(6R,7R)-6-methoxy-7-methyl-2-azaspiro[3.3]heptan-2-yl]benzoyl]-2,4-dihydro-1,3-benzoxazin-8-yl]-5-fluoro-2-(3-oxa-8-azabicyclo[3.2.1]octan-8-yl)benzoic acid] | 1.1
7 | O=C(O)c1cc(F)c(-c2cccc3c2OCN(C(=O)c2c(Cl)cc(N4CCOCC4)cc2Cl)C3)cc1N1CCOCC1 [Compound 1-59, 4-[3-(2,6-Dichloro-4-morpholin-4-ylbenzoyl)-2,4-dihydro-1,3-benzoxazin-8-yl]-5-fluoro-2-morpholin-4-ylbenzoic acid] | 1.2
8 | CO[C@H]1CN(c2cc(-c3cccc4c3OCN(C(=O)c3c(Cl)cc(-c5cnn(C)c5)cc3Cl)C4)c(F)cc2C(=O)O)[C@H]1C [Compound 12-3, 4-[3-[2,6-Dichloro-4-(1-methylpyrazol-4-yl)benzoyl]-2,4-dihydro-1,3-benzoxazin-8-yl]-5-fluoro-2-[(2S,3S)-3-methoxy-2-methylazetidin-1-yl]benzoic acid] | 6
9 | O=C(O)c1cc(F)c(-c2cccc3c2OCN(C(=O)c2c(Cl)cc(N4CCN(C5COC5)CC4)cc2Cl)C3)cc1N1CCOCC1 [Compound 1-55, 4-[3-[2,6-Dichloro-4-[4-(oxetan-3-yl)piperazin-1-yl]benzoyl]-2,4-dihydro-1,3-benzoxazin-8-yl]-5-fluoro-2-morpholin-4-ylbenzoic acid] | 1.5
10 | O=C(O)c1cc(F)c(-c2cccc3c2OCN(C(=O)c2c(Cl)cc(N4CC5(C4)OCC4(CCC4)CO5)cc2Cl)C3)cc1N1C2CCC1COC2 [Compound 5-8, 4-[3-[2,6-Dichloro-4-(6,11-dioxa-9-azadispiro[3.2.37.24]dodecan-9-yl)benzoyl]-2,4-dihydro-1,3-benzoxazin-8-yl]-5-fluoro-2-(3-oxa-8-azabicyclo[3.2.1]octan-8-yl)benzoic acid] | 2
11 | Cn1ccc2cc(C(=O)N3COc4c(cccc4-c4cc(N5CCOCC5)c(C(=O)O)cc4F)C3)c(Cl)cc21 [Compound 13-11, 4-[3-(6-Chloro-1-methylindole-5-carbonyl)-2,4-dihydro-1,3-benzoxazin-8-yl]-5-fluoro-2-morpholin-4-ylbenzoic acid] | 7.5
12 | O=C(O)c1cc(F)c(-c2cccc3c2OCN(C(=O)c2c(Cl)cc(N4CC(F)C4)cc2Cl)C3)cc1N1C2CCC1COC2 [Compound 1-20, 4-[3-[2,6-Dichloro-4-(3-fluoroazetidin-1-yl)benzoyl]-2,4-dihydro-1,3-benzoxazin-8-yl]-5-fluoro-2-(3-oxa-8-azabicyclo[3.2.1]octan-8-yl)benzoic acid] | 3.2
13 | O=C(O)c1ccc(-c2cccc3c2OCN(C(=O)c2c(Cl)cc(N4CC5(CCCO5)C4)cc2Cl)C3)cc1N1C2CCC1COC2 [Compound 1-61, 4-[3-[2,6-Dichloro-4-(5-oxa-2-azaspiro[3.4]octan-2-yl)benzoyl]-2,4-dihydro-1,3-benzoxazin-8-yl]-2-(3-oxa-8-azabicyclo[3.2.1]octan-8-yl)benzoic acid] | 2.6
14 | COCCN1CCN(c2cc(Cl)c(C(=O)N3CSc4c(cccc4-c4cc(N5CCOCC5)c(C(=O)O)cc4F)C3)c(Cl)c2)CC1 [Compound 1-69, 4-[3-[2,6-Dichloro-4-[4-(2-methoxyethyl)piperazin-1-yl]benzoyl]-2,4-dihydro-1,3-benzothiazin-8-yl]-5-fluoro-2-morpholin-4-ylbenzoic acid] | 5.4
15 | Cn1cc(-c2cc(Cl)c(C(=O)N3Cc4cccc(-c5ccc(C(=O)O)c(N6CCOCC6)c5)c4C(=O)N3)c(Cl)c2)cn1 [Compound 14-4, 4-[2-[2,6-Dichloro-4-(1-methylpyrazol-4-yl)benzoyl]-4-oxo-1,3-dihydrophthalazin-5-yl]-2-morpholin-4-ylbenzoic acid] | 3.8
16 | O=C(O)c1cc(F)c(-c2cccc3c2OCN(C(=O)c2c(Cl)cc(N4CCC4=O)cc2Cl)C3)cc1N1CCOCC1 [Compound 1-50, 4-[3-[2,6-Dichloro-4-(2-oxoazetidin-1-yl)benzoyl]-2,4-dihydro-1,3-benzoxazin-8-yl]-5-fluoro-2-morpholin-4-ylbenzoic acid] | 4.6
17 | Cn1nc2nccc(-c3cc(Cl)c(C(=O)N4COc5c(cccc5-c5cc(N6C7CCC6COC7)c(C(=O)O)cc5F)C4)c(Cl)c3)c2n1 [Compound 3-17, 4-[3-[2,6-Dichloro-4-(2-methyltriazolo[4,5-b]pyridin-7-yl)benzoyl]-2,4-dihydro-1,3-benzoxazin-8-yl]-5-fluoro-2-(3-oxa-8-azabicyclo[3.2.1]octan-8-yl)benzoic acid] | 12
18 | CC1(F)CN(c2cc(Cl)c(C(=O)N3COc4c(cccc4-c4cc(N5C6CCC5COC6)c(C(=O)O)cc4F)C3)c(Cl)c2)C1 [Compound 1-11, 4-[3-[2,6-Dichloro-4-(3-fluoro-3-methylazetidin-1-yl)benzoyl]-2,4-dihydro-1,3-benzoxazin-8-yl]-5-fluoro-2-(3-oxa-8-azabicyclo[3.2.1]octan-8-yl)benzoic acid] | 2.1
19 | COCCN1CCC12CN(c1cc(Cl)c(C(=O)N3COc4c(cccc4-c4cc(N5C6CCC5COC6)c(C(=O)O)cc4F)C3)c(Cl)c1)C2 [Compound 7-6, 4-[3-[2,6-Dichloro-4-[1-(2-methoxyethyl)-1,6-diazaspiro[3.3]heptan-6-yl]benzoyl]-2,4-dihydro-1,3-benzoxazin-8-yl]-5-fluoro-2-(3-oxa-8-azabicyclo[3.2.1]octan-8-yl)benzoic acid] | 5.4
20 | CO[C@H]1C[C@@]2(CN(c3cc(Cl)c(C(=O)N4COc5c(cccc5-c5cc(N6C7CCC6COC7)c(C(=O)O)cc5F)C4)c(Cl)c3)[C@@H]2C)C1 [Compound 1-24, 4-[3-[2,6-Dichloro-4-[(1R,4r,6R)-6-methoxy-1-methyl-2-azaspiro[3.3]heptan-2-yl]benzoyl]-2,4-dihydro-1,3-benzoxazin-8-yl]-5-fluoro-2-(3-oxa-8-azabicyclo[3.2.1]octan-8-yl)benzoic acid] | 1.4
21 | CN1CCN(c2cc(Cl)c(C(=O)N3COc4c(cccc4-c4cc(N5C6CCC5COC6)c(C(=O)O)cc4F)C3)c(Cl)c2)CC1C(F)(F)F (stereo not drawn) [Compound 9-23, 4-[3-[2,6-Dichloro-4-[4-methyl-3-(trifluoromethyl)piperazin-1-yl]benzoyl]-2,4-dihydro-1,3-benzoxazin-8-yl]-5-fluoro-2-(3-oxa-8-azabicyclo[3.2.1]octan-8-yl)benzoic acid] | 3.1
22 | O=C(O)c1cc(F)c(-c2cccc3c2OCN(C(=O)c2c(Cl)cc(N4CC(OC5COC5)C4)cc2Cl)C3)cc1N1C2CCC1COC2 [Compound 6-7, 4-[3-[2,6-Dichloro-4-[3-(oxetan-3-yloxy)azetidin-1-yl]benzoyl]-2,4-dihydro-1,3-benzoxazin-8-yl]-5-fluoro-2-(3-oxa-8-azabicyclo[3.2.1]octan-8-yl)benzoic acid] | 5.7
23 | CC[C@@H](c1cccc2c1OCN(C(=O)c1c(Cl)cc(-c3cnn(C)c3)cc1Cl)C2)[C@H](C)C(=O)O [Compound 17-3, (2S,3R)-3-[3-[2,6-Dichloro-4-(1-methylpyrazol-4-yl)benzoyl]-2,4-dihydro-1,3-benzoxazin-8-yl]-2-methylpentanoic acid] | 9.7
24 | O=C(O)c1cc(F)c(-c2cccc3c2OCN(C(=O)c2c(Cl)cc(N4CC5(CCOC5)C4)cc2Cl)C3)cc1N1C2CCC1COC2 [Compound 1-3, 4-[3-[2,6-Dichloro-4-(6-oxa-2-azaspiro[3.4]octan-2-yl)benzoyl]-2,4-dihydro-1,3-benzoxazin-8-yl]-5-fluoro-2-(3-oxa-8-azabicyclo[3.2.1]octan-8-yl)benzoic acid] | 5.8
